Source: publication PMC5069690, “Hepatic 3D spheroid models for the detection and study of compounds with cholestatic liability” (Scientific Reports, 2016)
pEC50, pIC50: −log10 of the molar value. Values joined by “and” are separate entries in the source; they are usually repeats but may differ in a detail not shown here. Equal entries are not always repeated. Where two headings read alike, the source gives them in different places.

Key:
[1] = tested on: multi-donor PHH spheroids; assay: Repeated-exposure toxicity in multi-donor PHH spheroids with or without BA mixture, albumin secretion; assay type: cell-based, human; settings: for pEC50: Homo sapiens, 336 h, 14 days repeated exposure; for Cholestatic Index (EC50 (+BA) / EC50 (-BA)) / Cholestatic risk classification based on CIx: 14 days; for Cholestatic risk classification based on CIx: multi-donor PHH spheroids
Method: The cells were seeded in PHH medium (Williams’ medium E containing 100 units/ml penicillin, 100 μg/ml streptomycin, 2 mM L-glutamine, 10 μg/ml insulin, 5.5 μg/ml transferrin, 6.7 ng/ml sodium selenite, 100 nM dexamethasone) supplemented with 10% fetal bovine serum. […] When PHH had reassembled into compact aggregates (day 4–6 after seeding), spheroids were shifted to serum-free PHH medium. […] The spheroids were maintained in serum-free PHH medium.
(§1) Toxicity studies were started at day 8 and day 5 for PHH and HepaRG spheroids, respectively.

BSEP = settings: quoted in the discussion, no reference given; read-out: BSEP inhibition IC50; cited from earlier work
HepaRG spheroids [2] = assay: Repeated-exposure toxicity in HepaRG spheroids with or without BA mixture, cellular ATP content; assay type: cell-based, human; settings: for Cholestatic Index (EC50 (+BA) / EC50 (-BA)) / CC50: ATP, one value per independent experiment; for CC50: Homo sapiens, HepaRG, compound alone, read-out: Without BA EC50
Method: Cryopreserved differentiated HepaRG cells (Biopredic International, France) were thawed according to the supplier’s instructions. The cells were seeded in Williams’ medium E with GlutaMAX^TM containing the thaw, seed and general purpose additive (ADD670; Biopredic International). The cells were seeded at a density of 2,000 viable cells per well in ULA plates. From day 5, the spheroids were maintained in medium containing 0.5% DMSO, the serum-free induction additive (ADD650, Biopredic International), 20 ng/ml epidermal growth factor and 10 ng/ml hepatocyte growth factor (HumaXpress, Nordic BioSite, Sweden).
as §1

PHH spheroids [3] = assay: Repeated-exposure toxicity in PHH spheroids with or without BA mixture, cellular ATP content;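 as to all read-outs here: primary human hepatocyte spheroids dosed every second day with compound, with or without a bile acid mixture, viability read as cellular ATP by luminescence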; settings: for CC50: Homo sapiens; for CC50 / Cholestatic Index (EC50 (+BA) / EC50 (-BA)): one value per independent experiment; for Cholestatic risk classification based on CIx / CIx (mean of the independent experiments) / Cholestatic Index (EC50 (+BA) / EC50 (-BA)) / CIx: PHH spheroids; for CIx (mean of the independent experiments): 8 days co-exposure with BAs vs compound alone; for Cholestatic Index (EC50 (+BA) / EC50 (-BA)): ATP; for CIx: cellular ATP content read-out, Supplementary Fig. S2A
Method: Cryopreserved PHH (Bioreclamation IVT, USA) were thawed according to the supplier’s instructions. The cells were seeded in PHH medium (Williams’ medium E containing 100 units/ml penicillin, 100 μg/ml streptomycin, 2 mM L-glutamine, 10 μg/ml insulin, 5.5 μg/ml transferrin, 6.7 ng/ml sodium selenite, 100 nM dexamethasone) supplemented with 10% fetal bovine serum. The cells were seeded at a density of 1,500 viable cells per well in ultra-low attachment (ULA) plates (Corning). When PHH had reassembled into compact aggregates (day 4–6 after seeding), spheroids were shifted to serum-free PHH medium. […] The hepatocytes were derived from 5 male and 5 female donors and were aggregated into 3D microtissues in GravityPLUS™ hanging drop plates and cultivated and assayed in GravityTRAP™ plates. The spheroids were maintained in serum-free PHH medium.
(§5) Stock solutions of the compounds were diluted in culture medium to a maximal final DMSO concentration of 0.3% for PHH spheroids and 0.6% for HepaRG spheroids. Toxicity studies were started at day 8 and day 5 for PHH and HepaRG spheroids, respectively. Spheroids were treated every other day with the compounds in the presence or absence of the BA mixture. Cellular ATP content was determined as a marker of cell viability using the CellTiter-Glo Luminescent Cell Viability Assay (Promega, Sweden). When indicated, albumin concentrations were determined by ELISA (Bethyl laboratories, USA).
(§6) To evaluate the cholestatic risk of the tested compounds we introduced the cholestatic index (CIx). The CIx is defined as the ratio between the EC50-value from co-exposure to a compound and the BA mixture and the EC50-value from exposure to the compound alone.

PHH spheroids [4] = assay: Toxicity in PHH spheroids with or without BA mixture, albumin secretion read-out (Supplementary Fig. S2); settings: 8 days, Supplementary Fig. S2B
Method: as §5, §6

[5] = tested on: F-actin cytoskeleton in HepaRG spheroids; assay: F-actin cytoskeleton integrity (Phalloidin staining) in HepaRG spheroids; assay type: cell-based, human; settings: 8 days
Method: (§2) Spheroids were fixed in 4% paraformaldehyde at 4 °C O/N. Immunohistochemistry was performed on cryosections (8 μm) for BSEP (Atlas, Sweden) and MRP2 (Abcam, UK). […] F-actin was visualized using Alexa Fluor 488 Phalloidin. Slides were mounted with ProLong Gold Antifade Mountant with DAPI and fluorescence was assessed by confocal microscopy (Zeiss LSM 710). Surface expression of the BA transporters was quantified using CellProfiler software.

PHH spheroids [6] = assay: Bile acid accumulation (fluorescent taurocholic acid derivative, confocal microscopy) in PHH spheroids; assay type: cell-based, human; settings: repeated exposure for 8 days
Method: (§3) BA accumulation was assessed with a fluorescently labelled taurocholic acid derivative, tauro-nor-THCA-25-DBD (Genomembrane Company, Ltd, Japan). After 6 days of chlorpromazine exposure, the spheroids were co-exposed to chlorpromazine and 20 μM tauro-nor-THCA-25-DBD for an additional 2 days. Fluorescence was assessed by confocal microscopy (Zeiss LSM 710).

HepaRG spheroids [7] = assay: Bile acid accumulation (fluorescent taurocholic acid derivative, confocal microscopy) in HepaRG spheroids; assay type: cell-based, human
Method: as §3

[8] = tested on: ABCB11, SRXN1, NFE2L2, DR5 expression in HepaRG spheroids; assay: RT-qPCR gene expression in HepaRG spheroids; assay type: cell-based, human; settings: 8 days; for DR5 expression / NFE2L2 expression / SRXN1 expression: co-exposure with non-toxic BA mixture compared to compound or BAs alone
Method: (§4) Total RNA was extracted using Qiazol according to the manufacturer’s protocol. RNA was reverse-transcribed into cDNA with SuperScript III reverse transcriptase. RT-qPCR analysis was performed with a 7500 Fast Real-Time PCR system using a TaqMan Universal or SYBR Green mix.

[9] = tested on: ABCB11, SRXN1, NFE2L2, DR5 expression in PHH spheroids; assay: RT-qPCR gene expression in PHH spheroids; assay type: cell-based, human; settings: 8 days
Method: as §4

[10] = tested on: F-actin cytoskeleton in PHH spheroids; assay: F-actin cytoskeleton integrity (Phalloidin staining) in PHH spheroids; assay type: cell-based, human; settings: 8 days
Method: as §2

[11] = multi-donor PHH spheroids (10 donors), co-exposure with BA mixture, albumin secretion, read-out: With BA EC50
[12] = multi-donor PHH spheroids (10 donors), compound alone, albumin secretion, read-out: Without BA EC50
[13] = 8 days co-exposure with BAs vs compound alone
[14] = 192 h, 8 days repeated exposure
[15] = 336 h, 14 days repeated exposure
[16] = 192 h, read-out: Without BA EC50, PHH spheroids, 8 days repeated exposure, compound alone, ATP
[17] = 336 h, read-out: Without BA EC50, PHH spheroids, 14 days repeated exposure, compound alone, ATP
[18] = co-exposure with non-toxic BA mixture compared to compound or BAs alone
[19] = multi-donor PHH spheroids (10 donors), albumin secretion

Structure (SMILES) | pEC50 [1, 11] | pEC50 [1, 12] | Cholestatic Index (EC50 (+BA) / EC50 (-BA)) ([1]; both, human) | pIC50 (BSEP) | Cholestatic risk classification based on CIx (HepaRG spheroids [2]; 8 days) | CIx (mean of the independent experiments) (HepaRG spheroids [2]; [13]) | Cholestatic Index (EC50 (+BA) / EC50 (-BA)) (HepaRG spheroids [2]; 8 days) | Cholestatic Index (EC50 (+BA) / EC50 (-BA)) (HepaRG spheroids [2]; 14 days) | CC50 (HepaRG spheroids [2]; [14]) [µM] | CC50 (HepaRG spheroids [2]; [15]) [µM] | CC50 (PHH spheroids [3]; [16]) [µM] | CC50 (PHH spheroids [3]; [17]) [µM] | Cholestatic risk classification based on CIx (PHH spheroids [3]; 8 days) | CIx (mean of the independent experiments) (PHH spheroids [3]) | Cholestatic Index (EC50 (+BA) / EC50 (-BA)) (PHH spheroids [3]; 14 days) | Cholestatic Index (EC50 (+BA) / EC50 (-BA)) (PHH spheroids [3]; 8 days) | other results
CN(CCOc1ccc(CC2SC(=O)NC2=O)cc1)c1ccccn1 (stereo not shown) [Rosiglitazone, rosiglitazone] | 4.77 | 4.72 | 0.89 | – | – | – | – | – | – | – | – | – | – | – | – | – | –
COc1ccccc1Oc1c(NS(=O)(=O)c2ccc(C(C)(C)C)cc2)nc(-c2ncccn2)nc1OCCO [Bosentan, bosentan] | 4.27 | 3.99 | 0.53 | 4.42 | cholestatic risk (compounds with a CIx ≤ 0.80 were considered to have cholestatic risk) | 0.60 ± 0.06 | 0.63 and 0.54 and 0.64 | 0.61 and 0.50 and 0.48 | 187 | 115 | 66 | 55 | cholestatic risk (compounds with a CIx ≤ 0.80 were considered to have cholestatic risk) | 0.19 ± 0.12 | 0.11 and 0.12 and 0.16 | – | –
CN(C)CCCN1c2ccccc2Sc2ccc(Cl)cc21 [Chlorpromazine, chlorpromazine] | 5.77 | 5.35 | 0.38 | 3.83 | low cholestatic risk (Compounds with a CIx ≥ 0.80) | 0.87 ± 0.06 | 0.88 and 0.81 and 0.93 | 0.63 and 0.65 and 0.69 | 17 | 14 | 14 | 12 | low cholestatic risk (Compounds with a CIx ≥ 0.80) | 0.90 ± 0.12 | 0.80 and 0.71 and 0.77 | 0.85 and 1.07 and 0.83 | CIx (PHH spheroids [4]): 0.69; F-actin expression and integrity [5]: reduced F-actin expression and disrupted its integrity; intracellular BA accumulation (tauro-nor-THCA-24-DBD) (PHH spheroids [6]): cytoplasmic accumulation; Cholestatic risk classification based on CIx (HepaRG spheroids [2]; 14 days): cholestatic risk (compounds with a CIx ≤ 0.80 were considered to have cholestatic risk); CIx (mean of the independent experiments) (HepaRG spheroids [2]; 14 days of repeated exposure): 0.66 ± 0.03; toxicity to the spheroids (HepaRG spheroids [7]; 10 μM, 8 days): toxic; intracellular BA accumulation (tauro-nor-THCA-24-DBD) (HepaRG spheroids [7]; repeated exposure for 8 days): cytoplasmic accumulation; DR5 expression [8]: significantly induced DR5; NFE2L2 expression [8]: significantly further increased NFE2L2 expression; SRXN1 expression [8]: significant induction of SRXN1; expression of ABCB11, encoding BSEP ([8]; normalized to GAPDH): inhibited the expression of ABCB11; DR5 expression [9, 18]: significantly induced DR5; NFE2L2 expression [9, 18]: significantly further increased NFE2L2 expression; SRXN1 expression [9, 18]: significant induction of SRXN1; expression of ABCB11, encoding BSEP ([9]; normalized to GAPDH): inhibited the expression of ABCB11; DR5 expression ([9]; toxic concentration alone (80x BA; 12.5 µM CPZ), Supplementary Fig. S3): no change in DR5 expression; F-actin expression and integrity [10]: reduced F-actin expression and disrupted its integrity; CIx (PHH spheroids [3]; 8 days): 0.75; Cholestatic risk classification based on CIx (PHH spheroids [3]; 14 days): cholestatic risk (compounds with a CIx ≤ 0.80 were considered to have cholestatic risk)
CC(=O)Nc1ccc(O)cc1 [Acetaminophen, acetaminophen] | 2.74 | 2.72 | – | – | – | 1.02 ± 0.03 | – | – | 1600 | 1000 | 1090 | 804 | – | 1.89 ± 0.37 | – | – | DR5 expression [8]: no induction of DR5; NFE2L2 expression [8]: no changes in SRXN1 or NFE2L2 expression; SRXN1 expression [8]: no changes in SRXN1 or NFE2L2 expression; DR5 expression [9, 18]: no induction of DR5; NFE2L2 expression [9, 18]: no changes in SRXN1 or NFE2L2 expression; SRXN1 expression [9, 18]: no changes in SRXN1 or NFE2L2 expression
Cc1c(C)c2c(c(C)c1O)CCC(C)(COc1ccc(CC3SC(=O)NC3=O)cc1)O2 (stereo not shown) [Troglitazone, troglitazone] | 5.06 | 4.85 | 0.63 | 5.57 | cholestatic risk (compounds with a CIx ≤ 0.80 were considered to have cholestatic risk) | 0.71 ± 0.17 | 0.56 and 0.90 and 0.67 | – | – | – | 11 | 6.2 | cholestatic risk (compounds with a CIx ≤ 0.80 were considered to have cholestatic risk) | 0.80 ± 0.17 | 0.45 and 0.67 and 0.86 | 0.99 and 0.72 and 0.67 | –
CCC(=O)O[C@H]1[C@H](O[C@@H]2[C@@H](C)[C@H](O[C@H]3C[C@@](C)(OC)[C@@H](O)[C@H](C)O3)[C@@H](C)C(=O)O[C@H](CC)[C@@](C)(O)[C@H](O)[C@@H](C)C(=O)[C@H](C)C[C@@]2(C)O)O[C@H](C)C[C@@H]1N(C)C [Erythromycin estolate, erythromycin estolate] | 4.74 | 4.55 | – | – | – | – | – | – | – | – | – | – | – | – | – | – | Cholestatic Index (EC50 (+BA) / EC50 (-BA)) [1, 19]: 0.64; Cholestatic risk classification based on CIx [1]: cholestatic risk (compounds with a CIx ≤ 0.80 were considered to have cholestatic risk)
Cc1ccc(C(=O)c2cc(O)c(O)c([N+](=O)[O-])c2)cc1 [Tolcapone, tolcapone] | 4.89 | 4.85 | 0.93 | – | – | – | – | – | – | – | – | – | – | – | – | – | –
CN(C)[C@@H]1C(O)=C(C(N)=O)C(=O)[C@@]2(O)C(O)=C3C(=O)c4c(O)cccc4[C@@](C)(O)[C@H]3C[C@@H]12 [Tetracycline, tetracycline] | 3.91 | 3.92 | – | – | low cholestatic risk (Compounds with a CIx ≥ 0.80) | 1.05 ± 0.12 | 0.91 and 1.13 and 1.12 | 0.95 and 1.18 and 1.16 | 242 | 121 | 116 | 74 | low cholestatic risk (Compounds with a CIx ≥ 0.80) | 1.00 ± 0.08 | 1.41 and 1.07 and 0.94 | 1.01 and 0.91 and 1.07 | CIx (PHH spheroids [4]): 1.08; Cholestatic Index (EC50 (+BA) / EC50 (-BA)) [1, 19]: 1.03; Cholestatic risk classification based on CIx [1]: low cholestatic risk (Compounds with a CIx ≥ 0.80); Cholestatic risk classification based on CIx (HepaRG spheroids [2]; 14 days): low cholestatic risk (Compounds with a CIx ≥ 0.80); CIx (PHH spheroids [3]; 8 days): 0.87; Cholestatic risk classification based on CIx (PHH spheroids [3]; 14 days): low cholestatic risk (Compounds with a CIx ≥ 0.80)
Clc1ccccc1CN1CCc2sccc2C1 [Ticlopidine, ticlopidine] | 4.68 | 4.64 | – | – | – | – | – | – | – | – | – | – | – | – | – | – | –
